≈ marks a conversion by molar mass, not a printed value. Entries after “also recorded” stand apart in the source; their conditions may differ. Read-outs that look alike come from different tables or passages of the source.
Legend:
Escherichia coli = test: Broth microdilution MIC, 50 clinical isolates (incl. ESBL, one NDM-1); assay type: cell-based; settings: for MIC50: read-out: MIC50
Procedure: Minimal inhibitory concentration (MIC) values were determined by broth microdilution or agar dilution in accordance with guidelines from the Clinical and Laboratory Standards Institute (CLSI; (1) “Methods for Dilution Antimicrobial Susceptibility Tests for Bacteria That Grow Aerobically; Approved Standard; 11th ed.” CLSI standard M07-A11, 2018; (2) “Performance Standards for Antimicrobial Susceptibility Testing; Twenty-Eighth Informational Supplement,” CLSI document M100-S28, 2018; and (3) “Methods for Antimicrobial Susceptibility Testing of Anaerobic Bacteria; Approved Standard—Eighth Edition,” CLSI document M11-A8, 2012).
Tested aerobically by broth microdilution: • Escherichia coli, n=50 • Klebsiella spp., n=50 • Pseudomonas aeruginosa, n=50 • Streptococcus spp., n=50 • Staphylococcus aureus, n=50 • Enterococcus faecalis, n=50 • Enterobacter aerogenes, n=50 • Proteus mirabilis, n=50
Broth microdilution testing of aerobic bacteria was conducted in cation-adjusted Mueller Hinton broth (MHBII). For testing streptococci, lysed horse blood (LHB) was added to MHBII broth at a final concentration of 3%. Where LHB was used, it was added after filtering.
Broth microdilution susceptibility testing in 96-well microplates was conducted in accordance with CLSI methods (1) and (2). Automated liquid handlers were used to conduct serial dilutions and liquid transfers, including the Multidrop 384 (Labsystems, Helsinki, Finland), Biomek 2000, and the Biomek FX (Beckman Coulter, Fullerton, Calif.). All wells in columns 2 through 12 of a standard 96-well microdilution plate (Costar 3795) were filled with 150 μL of the appropriate diluent. Then, 300 μL of the test agents were added to the wells of column 1 of the plates at 100× the highest final concentration to be tested. Serial two-fold dilutions were made across the rows through column 11 using the Biomek 2000. The wells of column 12 contained no drug and served as the growth control wells. This plate served as the “mother plate” from which MIC assay plates or “daughter plates” were made.
The daughter plates were loaded with 190 μL per well of the appropriate medium using the Multidrop 384. The daughter plates were created using the Biomek FX which transferred 2 μL of drug solution from each well of a mother plate to each corresponding well of the daughter plate in a single step. A standardized inoculum of each test organism was prepared per CLSI methods (1) to equal a 0.5 McFarland standard, followed by a dilution of 1:20 for aerobes and 1:10 for anaerobes. The plates were then inoculated with 10 μL of the diluted inoculum using the Biomek 2000 from low to high drug concentration, resulting in a final concentration of approximately 5×10^5 CFU/mL per well. An un-inoculated plate was incubated in parallel for each medium for the purpose of assessing solubility of the drug in the test media.
Inoculated plates were stacked 3 or 4 high, covered with a sterile lid on the top plate, placed into boxes with CO2 planchets (streptococci) or plastic bags (all other isolates). Plates were incubated at 35° C. for 16-24 hr in ambient air for aerobes or for 42-48 hr in the anaerobic environment of the Bactron II anaerobe chamber (Sheldon Manufacturing Co.; Cornelius, Oreg.). Following incubation, the microplates were removed from the incubator and viewed from the bottom using a plate viewer. The MIC values were read and recorded as the lowest concentration of drug that inhibited visible growth of the organism as per CLSI methods (1) and (2).

Clostridium spp. = test: Agar dilution MIC, 10 clinical isolates; assay type: cell-based; settings: for Mode: modal MIC
[1] = system: E. coli ATCC 35218 (TEM-1 β-lactamase producer); test: Broth microdilution MIC (time-kill study); assay type: cell-based, Escherichia coli
S. pyogenes ATCC 49399 = test: Broth microdilution MIC (time-kill study); assay type: cell-based, Streptococcus pyogenes
E. coli ATCC 35218 = test: Time-kill assay; assay type: cell-based, Escherichia coli; settings: 2×, 4×, 8× MIC; 2, 6, 24 hr
Streptococcus spp. = test: Spontaneous mutation frequency assay; assay type: cell-based; settings: for Spontaneous Mutation Frequency: selection at 4× and 8× MIC
Procedure: Initial values of the MIC were determined by agar dilution in accordance with guidelines from the Clinical and Laboratory Standards Institute (CLSI; (1) “Methods for Dilution Antimicrobial Susceptibility Tests for Bacteria That Grow Aerobically; Approved Standard; 11th ed.,” CLSI standard M07, 2018; (2) “Methods for Antimicrobial Susceptibility Testing of Anaerobic Bacteria; Approved Standard—Eighth Edition,” CLSI document M11-A8, 2012.).
The agar plates were prepared by mixing a ratio of 1.0 mL of concentrated drug to 49.0 mL of the appropriate molten (47° C.) agar; the drug-supplemented agar was mixed, poured into 15-by-150 mm petri dishes and allowed to solidify and dry at room temperature prior to inoculation. […] Each plate was allowed to cool at room temperature for at least 1 hr.
The isolates were streaked onto the appropriate agar medium and incubated for 20 hr (aerobes) or 48 hr (Bacteroides under anaerobic conditions). Using a sterile swab, several well-isolated colonies were removed and resuspended in sterile saline at a heavy cell density. Each plate was inoculated with 0.5 mL of the cell suspension (each test concentration was inoculated in duplicate). The target inoculum for each spontaneous mutation plate was 10^9-10 CFU. In addition, a portion of the inoculum from each isolate was enumerated by making dilutions, spreading on agar and counting colonies.
Once the inoculum was absorbed into the agar, the plates were incubated at 35° C. Aerobes were examined at 24 and 48 hr, and resulting colonies were counted. Bacteroides were incubated anaerobically for 48-72 hr in the anaerobe chamber and colonies were counted.
Colony counts from plates used to enumerate the initial inoculum density and from the resulting spontaneous mutation frequency test plates were determined. The inoculum size was calculated as CFU inoculated per plate. The spontaneous mutation frequency was calculated using the counts from duplicate spontaneous mutation assay test plates as follows:
If there were no colonies on the antibiotic selection plates, the spontaneous mutation frequency was reported as less than the frequency observed with one colony to indicate that the spontaneous mutation frequency was less than the limit of detection (one CFU). […] The mutation prevention concentration (MPC) was reported as the lowest concentration for which no mutants were selected.

[2] = 10 Clostridium spp. clinical isolates
[3] = Streptococcus pyogenes, ATCC49399, broth microdilution, read-out: MIC

| Compound | % R (Escherichia coli) | % S (Escherichia coli) | Mode (Escherichia coli) [µg/mL] | Cumulative percentage of isolates inhibited at MIC (Escherichia coli; 0.015 μg/mL) [%] | Number of test isolates at MIC (Escherichia coli; 0.015 μg/mL) | Cumulative percentage of isolates inhibited at MIC (Escherichia coli; 0.03 μg/mL) [%] | Number of test isolates at MIC (Escherichia coli; 0.03 μg/mL) | Cumulative percentage of isolates inhibited at MIC (Escherichia coli; 0.06 μg/mL) [%] | Number of test isolates at MIC (Escherichia coli; 0.06 μg/mL) | MIC50 (Escherichia coli; Escherichia coli) [µg/mL] | Cumulative percentage of isolates inhibited at MIC (Escherichia coli; […]) [%] | Number of test isolates at MIC (Escherichia coli; […]) | isolates susceptible (Clostridium spp.) | % S (Clostridium spp.; [2]) [%] | MIC50 (Clostridium spp.; [2]) [µg/mL] | MIC90 (Clostridium spp.; [2]) [µg/mL] | MIC range (Clostridium spp.; [2]) [µg/mL] | MIC50 (Clostridium spp.; Clostridium) [µg/mL] | MIC90 (Clostridium spp.; Clostridium) [µg/mL] | Mode (Clostridium spp.; [2]) [µg/mL] | also measured |
| --- | --- | --- | --- | --- | --- | --- | --- | --- | --- | --- | --- | --- | --- | --- | --- | --- | --- | --- | --- | --- | --- |
| C[C@@H](O)[C@H]1C(=O)N2C(C(=O)O)=C(S[C@@H]3CN[C@H](C(=O)N(C)C)C3)[C@H](C)[C@H]12 [meropenem] | 2% | Ninety-eight | 0.015 | 78.0 | 21 | 90.0 | 6 | 92.0 | 1 | 0.015 (≈ 0.0391 µM) | 98.0 | 3 | One hundred | 100 | 1 (≈ 2.61 µM) | 2 (≈ 5.22 µM) | 0.06 to 2 | 1 (≈ 2.61 µM) | 2 (≈ 5.22 µM) | 1 | relative activity among drugs tested (Escherichia coli): most active drug tested; also recorded: most active agent; Cumulative percentage of isolates inhibited at MIC (Escherichia coli; >8 μg/mL): 100.0%; Number of test isolates at MIC (Escherichia coli; >8 μg/mL): 1; MIC90 (Escherichia coli; Escherichia coli, read-out: MIC90): 0.03 µg/mL (≈ 0.0782 µM); % R (Escherichia coli; listed as MEM): 2%; % S (Escherichia coli; listed as MEM): 98%; Cumulative percentage of isolates inhibited at MIC (Escherichia coli; ≤0.008 μg/mL): 36.0%; Number of test isolates at MIC (Escherichia coli; ≤0.008 μg/mL): 18; relative activity among drugs tested (Clostridium spp.): meropenem and metronidazole had similar activity; also recorded: most active agent; MIC ([1]; E. coli ATCC 35218): 0.015 µg/mL (≈ 0.0391 µM); MIC ([1]; Escherichia coli, ATCC35218): 0.015 µg/mL (≈ 0.0391 µM); MIC (S. pyogenes ATCC 49399; S. pyogenes ATCC 49399): 0.004 µg/mL (≈ 0.0104 µM); MIC (S. pyogenes ATCC 49399; [3]): 0.004 µg/mL (≈ 0.0104 µM); time-kill kinetics outcome (bactericidal = ≥3 log reduction in CFU per mL) (E. coli ATCC 35218): rapid killing and bactericidal activity at the two higher concentrations at 24 hr; colonies on selection plates (Streptococcus spp.): No Streptococcus spp. or Bacteroides spp. colonies were selected; Spontaneous Mutation Frequency (Streptococcus spp.): ≤ 9.52×10^−10 |
| CO/N=C(\C(=O)N[C@@H]1C(=O)N2C(C(=O)O)=C(CSc3nc(=O)c(=O)[nH]n3C)CS[C@H]12)c1csc(N)n1 [ceftriaxone] | Thirty-six | 64% | 0.03 | 1.0 | 1 | 42.0 | 19 | 58.0 | 8 | 0.06 (≈ 0.108 µM) | 64.0 | 3 | all the isolates were susceptible | 100 | 8 (≈ 14.4 µM) | 16 (≈ 28.9 µM) | 0.5 to 16 | 8 (≈ 14.4 µM) | 16 (≈ 28.9 µM) | 16 | Cumulative percentage of isolates inhibited at MIC (Escherichia coli; 0.008 μg/mL): 2.0%; Number of test isolates at MIC (Escherichia coli; 0.008 μg/mL): 1; Cumulative percentage of isolates inhibited at MIC (Escherichia coli; 8 μg/mL): 68.0%; Number of test isolates at MIC (Escherichia coli; 8 μg/mL): 2; Cumulative percentage of isolates inhibited at MIC (Escherichia coli; 16 μg/mL): 72.0%; Number of test isolates at MIC (Escherichia coli; 16 μg/mL): 2; Cumulative percentage of isolates inhibited at MIC (Escherichia coli; 64 μg/mL): 76.0%; Number of test isolates at MIC (Escherichia coli; 64 μg/mL): 2; Cumulative percentage of isolates inhibited at MIC (Escherichia coli; >128 μg/mL): 100.0%; Number of test isolates at MIC (Escherichia coli; >128 μg/mL): 12; MIC90 (Escherichia coli; Escherichia coli): > 128 µg/mL; % R (Escherichia coli; listed as CTR): 36%; MIC90 (Escherichia coli; listed as CTR): >128 µg/mL; MIC ([1]; E. coli ATCC 35218): 0.03 µg/mL (≈ 0.0541 µM); MIC ([1]; Escherichia coli, ATCC35218): 0.03 µg/mL (≈ 0.0541 µM); MIC (S. pyogenes ATCC 49399; S. pyogenes ATCC 49399): 0.015 µg/mL (≈ 0.027 µM); MIC (S. pyogenes ATCC 49399; [3]): 0.015 µg/mL (≈ 0.027 µM); time-kill kinetics outcome (bactericidal = ≥3 log reduction in CFU per mL) (E. coli ATCC 35218): bactericidal at 24 hr at 4× and 8×MIC; Spontaneous Mutation Frequency (Streptococcus spp.): ≤ 9.52×10^−10 |

From patent publication US20210386367A1, “DEVICES AND SYSTEMS FOR GASTROINTESTINAL MICROBIOME DETECTION AND MANIPULATION” (Progenity, Inc., priority 2018, published 2021)
